Source: patent publication US20240116889A1, “ANTIVIRAL COMPOUNDS AND METHODS” (priority 2019, published 2024)

What was measured:
[1] = test system: USSR H1N1 virus; format: cell-based, influenza A virus (A/USSR/77)
[2] = test system: USSR H1N1 virus; format: cell-based, influenza A virus (A/USSR/77); remark: listed apart in the source
[3] = test system: NPTr cells; conditions: for cell viability after priming: 30 min priming at doses used for infection studies
[4] = test system: extracellular Ca^2+ influx; test: Intracellular Ca2+ monitoring assay (Fluo-8) in NPTr cells; format: cell-based, pig
[5] = test system: SARS-CoV-2; test: SARS-CoV-2 replication in Calu-3 cells (RT-qPCR of media); format: cell-based; conditions: Calu-3 cells; […]; HC primed and continuously present
[6] = test system: human coronavirus OC43; format: cell-based; conditions: MRC-5 cells; TG 0.05 or 0.5 μM 30 min pre-infection; HC pre-infection or continuous
[7] = test system: A549 cells; test: Cell viability of A549 cells (CellTiter-Glo 2.0); format: cell-based, human; conditions: RDV continuous, TG 30 min, overnight
Method: (A) A549 cells were primed with indicated TG, 0.3 μM RDV or DMSO control for 30 min, washed twice with PBS and infected with 0.01 MOI of CoV OC43 for 2 h, after which cells were washed again with PBS and incubated in fresh infection media (OptiMEM supplemented with 0.1 μg/ml TPCK-trypsin for TG primed cells, or fresh media in the continuous presence of RDV. At 24, 48 and 72 hpi, viral RNA extraction was performed on collected supernatants followed by one-step reverse transcription qPCR to detect the relative copy number of hCoV OC43 replicase polyprotein lab RNA, based on relative Ct method. Indicated significance relative to corresponding RDV-treated cells based on 2-way ANOVA Tukey's multiple comparisons test. (B) As in (A), A549 cells were primed continuously with RDV, or for 30 min with indicated TG or DMSO, washed, cultured overnight and subjected to cell viability assay (CellTiter-Glo 2.0 Cell Viability Assay, Promega).

[8] = test system: RSV (A2 strain, ATCC VR-1540); test: RSV production from infected HEp2 cells (immuno-detection / RT-qPCR); format: cell-based, human respiratory syncytial virus; conditions: HEp-2 cells; TG 30 min priming, Riba continuously present; four days post-infection
[9] = test system: pdm H1N1 virus; format: cell-based, influenza A virus (A/California/07/2009)
[10] = test system: RIG-I, OAS1 and PKR; format: cell-based, pig; conditions: NPTr cells (TG also NHBE cells and myoblasts); priming before or during infection

Compound: CC1=C2CC[C@@H](C)[C@H]2[C@H]2[C@@H](CC1)C2(C)C [(+)-ledene, reference compound]
- progeny virus output vs DMSO control [1]: reduced virus production like that of TG
- progeny virus output [2]: dramatic reduction in progeny virus output

Compound: Cc1nnsc1C(=O)Nc1ccc(-n2nc(C(F)(F)F)cc2C(F)(F)F)cc1 [BTP2]
- cell viability after priming [3]: Non-toxic
- progeny virus output vs DMSO control [1]: small increase in progeny virus release

Compound: CC(=O)C1=C(O)[C@@H]2[C@H]3c4c[nH]c5cccc(c45)C[C@H]3C(C)(C)N2C1=O [CPA, Cyclopiazonic acid]
- concentration from which Ca^2+ influx was detected [4]: ≥ 10 µM
- reduction in ATP production ([3]; 5 μM CPA for 30 min, 24 h incubation): 8.3%

Compound: CCN(CCO)CCCC(C)Nc1ccnc2cc(Cl)ccc12 (stereo not drawn) [HC, hydroxychloroquine, reference compound]
- SARS-CoV-2 replication [5]: no consistent effect
- hCoV OC43 replication / progeny production [6]: required its continuous presence during infection

Compound: CCC(CC)COC(=O)[C@H](C)N[P@](=O)(OC[C@H]1O[C@@](C#N)(c2ccc3c(N)ncnn23)[C@H](O)[C@@H]1O)Oc1ccccc1 [RDV, remdesivir, reference compound]
- cell viability [7]: no adverse effect on cell viability

Compound: NC(=O)c1ncn([C@@H]2O[C@H](CO)[C@@H](O)[C@H]2O)n1 [Riba, ribavirin, reference compound]
- RSV progeny virus production, viral M-gene RNA [8]: significantly inhibited

Compound: COc1ccc(OC)c(-c2ccc(NC(=O)c3ccncc3F)cc2)c1 [Synta66]
- cell viability after priming [3]: Non-toxic
- progeny virus output vs DMSO control [1]: small increase in progeny virus release

Compound: C[C@@H]1CC[C@H]2[C@@H](C)C(=O)O[C@@H]3O[C@@]4(C)CC[C@@H]1[C@]32OO4 [artemisinin]
- progeny virus output vs DMSO control [9]: reduces progeny viral output
- progeny virus output vs DMSO control [1]: reduces progeny viral output

Compound: C=C1C(=O)O[C@@H]2[C@H]3C(C)=CC(=O)C3=C(C)CC[C@@H]12 [dehydroleucodine, reference compound]
- progeny virus output vs DMSO control [1]: reduced virus production like that of TG
- progeny virus output [2]: reduced progeny virus output

Compound: CC1=C2[C@H](/C=C(\C)C(=O)O)CC[C@@H](C)[C@H]2CC1 [valerenic acid]
- progeny virus output vs DMSO control [1]: reduced USSR H1N1 virus production like that of TG

Compound: tunicamycin
- progeny virus output vs DMSO control [9]: only slightly reduced virus production
- virus production relative to correspondingly infected TG primed cells ([9]; NPTr cells, […]): 2.8 times
- expression of type I IFN associated genes in response to infection [10]: little change in the expression of type I IFN associated genes
- extracellular Ca^2+ influx ([4]; non-toxic doses (CPA up to 5 μM; TG 10 min)): did not induce Ca^2+ influx
- cell viability after priming [3]: did not affect cell viability
- progeny virus output vs DMSO control [1]: only slightly reduced virus production
- virus production relative to correspondingly infected TG primed cells ([1]; NPTr cells, […]): 7.5 times
